# Measurements published in PubChem BioAssay (NCI).
#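 Briefly, cells in 96-well plates were exposed to five compound concentrations for 48 h, and endpoints were estimated by linear interpolation. Definition used: TGI = concentration required for complete inhibition of growth.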
# How the values were obtained:
# Test in all cases: growth of human tumour cells (NCI), 48 h
# NCI-H460 lung = system: NCI-H460 lung
# SK-MEL-28 melanoma = system: SK-MEL-28 melanoma
# NCI-H23 lung = system: NCI-H23 lung
# RXF 393 renal = system: RXF 393 renal
# DMS 114 small cell lung = system: DMS 114 small cell lung
# LXFL 529 NSCLC = system: LXFL 529 NSCLC
# IGROV1 ovarian = system: IGROV1 ovarian
# SK-OV-3 ovarian = system: SK-OV-3 ovarian
# OVCAR-4 ovarian = system: OVCAR-4 ovarian
# TK-10 renal = system: TK-10 renal
# SK-MEL-5 melanoma = system: SK-MEL-5 melanoma
# SK-MEL-2 melanoma = system: SK-MEL-2 melanoma
# U251 CNS = system: U251 CNS
# BT-549 breast = system: BT-549 breast
# CAKI-1 renal = system: CAKI-1 renal
# RXF-631 renal = system: RXF-631 renal
# SF-268 CNS = system: SF-268 CNS
# A549 NSCLC = system: A549 NSCLC
# MALME-3M melanoma = system: MALME-3M melanoma
# HL-60(TB) leukemia = system: HL-60(TB) leukemia
# SNB-75 CNS = system: SNB-75 CNS
# LOX IMVI melanoma = system: LOX IMVI melanoma
# OVCAR-5 ovarian = system: OVCAR-5 ovarian
# CCRF-CEM leukemia = system: CCRF-CEM leukemia
# DLD-1 colon = system: DLD-1 colon
# EKVX NSCLC = system: EKVX NSCLC
# HOP-18 NSCLC = system: HOP-18 NSCLC
# UACC-257 melanoma = system: UACC-257 melanoma
# SNB-78 CNS = system: SNB-78 CNS
# COLO 205 colon = system: COLO 205 colon
# M19-MEL melanoma = system: M19-MEL melanoma
# NCI-H226 lung = system: NCI-H226 lung
# UO-31 renal = system: UO-31 renal
# OVCAR-8 ovarian = system: OVCAR-8 ovarian
# K-562 leukemia = system: K-562 leukemia
# KM20L2 colon = system: KM20L2 colon
# MDA-MB-231 breast = system: MDA-MB-231 breast
# HCC-2998 colon = system: HCC-2998 colon
# KM12 colon = system: KM12 colon
# HOP-62 NSCLC = system: HOP-62 NSCLC
# A498 renal = system: A498 renal
# HCT-15 colon = system: HCT-15 colon
# T-47D breast = system: T-47D breast
# SF-539 CNS = system: SF-539 CNS
# HOP-92 NSCLC = system: HOP-92 NSCLC
# HS 578T breast = system: HS 578T breast
# UACC-62 melanoma = system: UACC-62 melanoma
# DMS 273 small cell lung = system: DMS 273 small cell lung
# SN12C renal = system: SN12C renal
# 786-0 renal = system: 786-0 renal
# MOLT-4 leukemia = system: MOLT-4 leukemia
# RPMI-8226 leukemia = system: RPMI-8226 leukemia
# MDA-N = system: MDA-N
# MDA-MB-435 = system: MDA-MB-435
# NCI-H522 lung = system: NCI-H522 lung
# M14 melanoma = system: M14 melanoma
# OVCAR-3 ovarian = system: OVCAR-3 ovarian
# DU-145 prostate = system: DU-145 prostate
# XF 498 CNS = system: XF 498 CNS
# HT29 colon = system: HT29 colon
# SF-295 CNS = system: SF-295 CNS
# ACHN renal = system: ACHN renal
# NCI/ADR-RES ovarian = system: NCI/ADR-RES ovarian
# HCT-116 colon = system: HCT-116 colon
# SNB-19 CNS = system: SNB-19 CNS
# PC-3 prostate = system: PC-3 prostate
# SR leukemia = system: SR leukemia
smiles,measurement,setting,value
C[N+](C)(C)CC1CCCC(C[N+](C)(C)C)C1=O (configuration not stated),TGI,NCI-H460 lung,39.2 µM
same,TGI,SK-MEL-28 melanoma,3.75 µM
same,TGI,NCI-H23 lung,5.84 µM
same,TGI,RXF 393 renal,3.18 µM
same,TGI,DMS 114 small cell lung,3.49 µM
same,TGI,LXFL 529 NSCLC,0.392 µM
same,TGI,IGROV1 ovarian,11.5 µM
same,TGI,SK-OV-3 ovarian,26 µM
same,TGI,OVCAR-4 ovarian,0.871 µM
same,TGI,TK-10 renal,4 µM
same,TGI,SK-MEL-5 melanoma,10.5 µM
same,TGI,SK-MEL-2 melanoma,3.29 µM
same,TGI,U251 CNS,10.3 µM
same,TGI,BT-549 breast,3.09 µM
same,TGI,CAKI-1 renal,1.48 µM
same,TGI,RXF-631 renal,47.4 µM
same,TGI,SF-268 CNS,55.9 µM
same,TGI,A549 NSCLC,40.6 µM
same,TGI,MALME-3M melanoma,0.487 µM
same,TGI,HL-60(TB) leukemia,2.22 µM
same,TGI,SNB-75 CNS,14.5 µM
same,TGI,LOX IMVI melanoma,3.09 µM
same,TGI,OVCAR-5 ovarian,7.73 µM
same,TGI,CCRF-CEM leukemia,1.28 µM
same,TGI,DLD-1 colon,0.386 µM
same,TGI,EKVX NSCLC,3.95 µM
same,TGI,HOP-18 NSCLC,1 µM
same,TGI,UACC-257 melanoma,1.48 µM
same,TGI,SNB-78 CNS,5.88 µM
same,TGI,COLO 205 colon,0.923 µM
same,TGI,M19-MEL melanoma,2.33 µM
same,TGI,NCI-H226 lung,31.4 µM
same,TGI,UO-31 renal,7.68 µM
same,TGI,OVCAR-8 ovarian,1.15 µM
same,TGI,K-562 leukemia,2.58 µM
same,TGI,KM20L2 colon,5.5 µM
same,TGI,MDA-MB-231 breast,3.58 µM
same,TGI,HCC-2998 colon,8.63 µM
same,TGI,KM12 colon,12.5 µM
same,TGI,HOP-62 NSCLC,43.3 µM
same,TGI,A498 renal,20.2 µM
same,TGI,HCT-15 colon,0.874 µM
same,TGI,T-47D breast,3.33 µM
same,TGI,SF-539 CNS,8.8 µM
same,TGI,HOP-92 NSCLC,1.17 µM
same,TGI,HS 578T breast,33.6 µM
same,TGI,UACC-62 melanoma,10.9 µM
same,TGI,DMS 273 small cell lung,10.1 µM
same,TGI,SN12C renal,1.5 µM
same,TGI,786-0 renal,2.38 µM
same,TGI,MOLT-4 leukemia,3.85 µM
same,TGI,RPMI-8226 leukemia,0.256 µM
same,TGI,MDA-N,9.44 µM
same,TGI,MDA-MB-435,3.43 µM
same,TGI,NCI-H522 lung,53.2 µM
same,TGI,M14 melanoma,2.37 µM
same,TGI,OVCAR-3 ovarian,1.36 µM
same,TGI,DU-145 prostate,16.7 µM
same,TGI,XF 498 CNS,0.898 µM
same,TGI,HT29 colon,14.2 µM
same,TGI,SF-295 CNS,45.6 µM
same,TGI,ACHN renal,1.82 µM
same,TGI,NCI/ADR-RES ovarian,7.27 µM
same,TGI,HCT-116 colon,2.23 µM
same,TGI,SNB-19 CNS,38 µM
same,TGI,PC-3 prostate,10.3 µM
same,TGI,SR leukemia,0.479 µM
